Key:
[1] = system: IL-6 mRNA expression; test: Inhibition of LPS-induced IL-6 mRNA expression in NRK52E; type: cell-based, Rat; details: 10 μM for 30 min, then LPS 24 hours
Protocol: (§1) Rat kidney epithelial cells (ATCC #CRL-1571) were maintained in DMEM medium containing 10% fetal bovine serum, and 1% Penicillin-Streptomycin solution (Sigma-Aldrich). NRK52E cells were passaged by trypsinization when the cultures reached a confluency of 70%. For all experiments, NRK52E cells were seeded at 0.6·10^5 cells/cm^2 and allowed to adhere for 24 hours.
(§2) HUVEC and NRK52E cells were pre-incubated with SUL compounds (10 μM) for 30 min and subsequently exposed to LPS for 24 hours under standard culture conditions. Cells were lysed in triZOL reagens (Invitrogen) and total RNA isolated according to manufacturers' instruction. 1 μg total RNA per sample was reverse transcribed using the FirstAid Reverse Transcription Kit (ThermoFisher). Copy-DNA equivalents of 5 ng total RNA were amplified on a ViiA7 Real-time PCR system (ThermoFisher, Waltham, Mass.) using iTaq Universal SYBR Green Supermix (Bio-Rad, Hercules, Calif.) and primers specific for tumor necrosis factor alpha, interleukin 1 beta, interleukin-6 and beta actin as loading control. Amplification was performed for 40 cycles of 95° C. for 30 s, 60° C. for 1 min. Relative mRNA expression was calculated as 2^−(Cq^gene^−Cq^reference^) and normalized to unstimulated control cells (100% inhibition) and vehicle-treated and LPS exposed cells (0% inhibition). The following primers were used: […]

[2] = system: expression of IL-6, TNF-α, IL-1β and ICAM in the kidney; test: CLP sepsis model, kidney RNA expression by qRT-PCR; type: in vivo; details: CLP mice; SUL-138 5 mg/kg s.c.; 24 hours
Protocol: To induce sepsis, the standard cecal ligation and puncture (CLP) model was used. Animals were anesthetized by subcutaneous injection of xylazine/ketamine (100/10 mg/kg), followed by administration of buprenorphine (0.1 mg/kg) as analgesic. After confirmation of anesthesia by lack of response to paw pinch and eye reflex, the abdomen was shaved, cleaned, and de-germed using a povidone-iodine solution before a 1-cm midline incision was made. The cecum was ligated with a 6-0 suture at half the distance between distal pole and the base of the cecum and punctured once with a 21-Gauge needle (‘through-and-through’ from mesenteric toward anti-mesenteric direction) which is an accepted model for ‘mid-grade’ sepsis. A small amount of stool (2-3 mm) was then extruded to ensure wound patency. The cecum was repositioned, thereby taking care not to spill fecal material on the wound edges, followed by closure of the abdomen by running sutures to the abdominal musculature and short interrupted sutures to the skin. Next, 1 ml of saline (warmed, 0.9% NaCl s.c.) was administered to compensate for the expected relative volume depletion due to the onset of sepsis.
Mice in the SUL-138 treated groups were injection with SUL-138 (dissolved in saline, 5 mg/kg, s.c.) at 2 hours before and 8 hours after surgery, while mice in the other groups were injected with an equal volume of saline at these time-points.
In order to assess the expression of proinflammatory cytokines and adhesion molecules in the kidney, including IL-6, TNF-α, IL-1β and ICAM, RNA was isolated from approximately 30 mg kidney tissue using Nucleospin RNA (Machery-Nagel, Duren, Germany), quantified using nanodrop spectrophotometer ND-1000 and converted into copy DNA (cDNA), using 0.5 μg RNA in each sample. For RNA isolation from cells, the same kit was used with slight adaptations: TRIzol and chloroform as lysis buffer, instead of the lysis buffer from the kit. Olignucleotide primers were designed using NCBI Primer Blast and Clone Manager (see appendix) and validated by assessing the efficiency, melting temperature and curve using qRT-PCR and size on gel electrophoresis of the naive and enzymatically digested products. qRT-PCR amplification was performed using the following thermal profile: 95° C. for 2 min, followed by 40 cycli of 95° C. for 15 sec, 58° C. for 30 sec and 72° C. 30 sec. All reactions were carried out in triplicate and a standard curve for each primer was used.

[3] = system: TNFα mRNA expression; test: Inhibition of LPS-induced TNFα mRNA expression in NRK52E; type: cell-based, Rat; details: 10 μM for 30 min, then LPS 24 hours
Protocol: as §1, §2

[4] = system: cytoplasmic oxidative stress in HUVEC; test: LPS-induced cellular superoxide in HUVEC (DHE); type: cell-based, Human; details: 10 μM for 30 min, LPS 100 ng/ml 24 hours
Protocol: (§3) Human Umbilical Cord Endothelial Cells (HUVEC, Lonza CC-2519) were maintained on 1% gelatin-coated culture flasks in RPMI1640 medium containing 20% fetal bovine serum, 2 mM Glutamine (Sigma-Aldrich), 1% Penicillin-Streptomycin solution (Sigma-Aldrich) and 50 μg/ml Bovine Pituitary Extract (Invitrogen). HUVEC were passaged by trypsinization when the cultures reach a confluency of 70%. For all experiments, HUVEC were seeded at 0.6·10^5 cells/cm^2 and allowed to adhere for 24 hours.
The production of cellular and mitochondrial oxidative stress was measured using fluorescent probes for cellular and mitochondrial superoxide, i.e. dihydroethidium (DHE) and MitoSox (ThermoFisher), respectively. HUVEC were incubated with BN-80933, SUL-138 or SUL-150 (all 10 μM) for 30 min. Next, HUVEC were exposed to LPS (100 ng/ml) for an additional 24 hours. In the final hour of incubation, 2.5 μM of DHE or MitoSox was applied to each sample. HUVEC were washed in PBS and fixed in 4% paraformaldehyde at room temperature for 15 min. Nuclear staining was performed by 5 μM […] (DAPI) and fluorescence intensity of the samples was recorded in a CLARIOStar Plus plate reader (BMG Labtech) equipped with the appropriate filter sets. Fluorescence recordings for DHE and MitoSox were corrected for DAPI fluorescence. All experiments were performed in quadruplicate.

[5] = system: TNFα mRNA expression; test: Endothelial inflammatory activation after endotoxin, TNFα mRNA (Example 5); type: cell-based, Human; details: HUVEC; 10 μM for 30 min
Protocol: as §3
HUVEC cells were lysed in triZOL reagens (Invitrogen) and total RNA isolated according to manufacturers' instruction. 1 μg total RNA per sample was reverse transcribed using the FirstAid Reverse Transcription Kit (ThermoFisher). Copy-DNA equivalents of 5 ng total RNA were amplified on a ViiA7 Real-time PCR system (ThermoFisher, Waltham, Mass.) using iTaq Universal SYBR Green Supermix (Bio-Rad, Hercules, Calif.) and primers specific for tumor necrosis factor alpha (TNFα; sense 5′-[…]-3′, antisense 5′-[…]-3′), interleukin 1 beta (IL-1β; sense 5′-[…]-3′, antisense 5′-[…]-3′), interleukin-6 (IL-6; sense 5′-[…]-3′, antisense 5′-[…]-3′) and beta actin (ACTB; sense 5′-[…]-3′, antisense 5′-[…]-3′) as loading control. Amplification was performed for 40 cycles of 95° C. for 30 s, 60° C. for 1 min. Relative mRNA expression was calculated according to the δδCt-method.

Compound: Cc1c(C)c2c(c(C)c1O)CC[C@@](C)(C(=O)N1CCN(CCO)CC1)O2 [SUL-138, (S)-(6-hydroxy-2,5,7,8-tetramethylchroman-2-yl)(4-(2-hydroxyethyl)piperazin-1-yl)methanone]
- inhibition of LPS-induced mRNA expression of IL-6 [1]: 65.3 ± 7.6 %
- ICAM expression in the kidney (RNA) [2]: lower than in the untreated CLP animals but the difference was not statistically significant
- IL-1β expression in the kidney (RNA) [2]: lower than in the untreated CLP animals but the difference was not statistically significant
- IL-6 expression in the kidney (RNA) [2]: fully prevented the rise in IL-6 expression
- TNF-α expression in the kidney (RNA) [2]: lower than in the untreated CLP animals but the difference was not statistically significant
- inhibition of LPS-induced mRNA expression of TNFα [3]: 52.6 ± 11.6 %
- LPS-induced cytoplasmic oxidative stress (DHE) [4]: mitigates the induction of cytoplasmic oxidative stress
- LPS-induced mRNA expression of TNFα [5]: precludes the induction of mRNA expression of the pro-inflammatory cytokine TNFα

Source: patent US20230202997A1, “CHROMANOL, QUINONE OR HYDROQUINONE COMPOUNDS FOR TREATMENT OF SEPSIS” (Sulfateq B.V., priority 2020, published 2023)
